Data taken from publication PMC8887546, “Design and Synthesis of Brain Penetrant Glycopeptide Analogues of PACAP With Neuroprotective Potential for Traumatic Brain Injury and Parkinsonism” (Frontiers in drug discovery, 2022).

Experiments:
[1] = test system: C57BL/6 mice, diffuse TBI; test: Rotarod after TBI; type: in vivo, mouse; conditions: 10 mg/kg i.p. 30 min prior to TBI, 2, 5 and 7 DPI
Procedure: (§1) 30 min prior to TBI or sham injury, mice were randomly assigned to a therapeutic group and received an intraperitoneal injection of 2LS80Mel (10 mg/kg) or sterile saline (0.25 ml). Groups were as follows: TBI-2LS80Mel n = 17; TBI-vehicle n = 17; sham n = 22 (vehicle n = 11, 2LS80Mel n = 11).
(§2) For injury induction 24 h post-surgery, mice were re-anesthetized with 5% isoflurane delivered for 3 min. The cap was removed from the injury-hub assembly and the dura was visually inspected through the hub to ensure it was intact with no debris. […] Injured mice were monitored for presence of a forearm fencing response and righting reflex times were recorded as indicators of injury severity ([Hosseini and Lifshitz, 2009]). […] After spontaneously righting, mice were placed in a heated recovery cage and monitored until they were ambulatory (approximately 5–15 min) before being returned to their piezoelectric sleep cage (see below). […]
Sensorimotor function was assessed using the Rotor-Rod system (San Diego Instruments) as we have previously published ([Rowe et al., 2018]). […] Following acclimation, mice were trained over three consecutive days prior to surgery/injury and the last training session was recorded as baseline. […]

[2] = test system: C57BL/6 mice, diffuse TBI; test: Novel object recognition after TBI; type: in vivo, mouse; conditions: 10 mg/kg i.p. 30 min prior to TBI, 14 DPI
Procedure: as §1, §2
Cognitive impairment was tested at 14 DPI using the novel object recognition (NOR) test as previously published ([Rowe et al., 2014b]; [Harrison et al., 2015]; [Saber et al., 2021]). […] For testing, the times spent actively investigating the novel and familiar object were quantified. […] If an animal climbed onto an object and sniffed into the air, this time was not calculated into the exploration of the novel object.

human VPAC2 receptor = molecular target: T1, human VPAC2 receptor (Homo sapiens, UniProt P41587); test: cAMP stimulation in CHO cells expressing VPAC2; type: cell-based
T1 construct: expressed in transfected cells; host or cells: CHO cells (G418 selection)
T1 sequence (P41587 24-438): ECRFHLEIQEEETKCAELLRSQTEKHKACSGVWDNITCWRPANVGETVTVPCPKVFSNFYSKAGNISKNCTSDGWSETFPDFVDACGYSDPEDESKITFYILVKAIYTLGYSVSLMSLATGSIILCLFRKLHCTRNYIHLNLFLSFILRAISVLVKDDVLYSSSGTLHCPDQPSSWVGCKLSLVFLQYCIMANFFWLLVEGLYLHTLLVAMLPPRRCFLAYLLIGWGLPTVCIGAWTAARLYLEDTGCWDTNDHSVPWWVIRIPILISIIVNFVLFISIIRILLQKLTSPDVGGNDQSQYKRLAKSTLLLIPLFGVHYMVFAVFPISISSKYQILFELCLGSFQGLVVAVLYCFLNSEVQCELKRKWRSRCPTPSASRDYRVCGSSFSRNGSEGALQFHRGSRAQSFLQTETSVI
Method in brief: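 Serum-starved CHO cells expressing human receptors were pre-treated 20 min with 500 μM IBMX, then exposed to agonist concentration curves for 10 min in 500 μM IBMX. cAMP quantified by competition with bovine PKA and ^3H-cAMP (1 h, room temperature), scintillation read.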

SMILES	Rotarod latency to fall [1]	Novel object recognition (cognitive deficits) [2]	EC50 (human VPAC2 receptor) [nM]	Emax (human VPAC2 receptor; CHO) [%]	Receptor selectivity ratio VPAC2/PAC1 (human VPAC2 receptor; ratio of cAMP EC50 values)	Receptor selectivity ratio VPAC2/VPAC1 (human VPAC2 receptor; ratio of cAMP EC50 values)
CC[C@H](C)[C@H](NC(=O)CNC(=O)[C@H](CC(=O)O)NC(=O)[C@H](CO)NC(=O)[C@@H](N)Cc1c[nH]cn1)C(=O)N[C@@H](Cc1ccccc1)C(=O)N[C@H](C(=O)N[C@@H](CC(=O)O)C(=O)N[C@@H](CO)C(=O)N[C@@H](Cc1ccc(O)cc1)C(=O)N[C@@H](CO)C(=O)N[C@@H](CCCNC(=N)N)C(=O)N[C@@H](Cc1ccc(O)cc1)C(=O)N[C@@H](CCCNC(=N)N)C(=O)N[C@@H](CCCCN)C(=O)N[C@@H](CCC(N)=O)C(=O)N[C@@H](CC(C)C)C(=O)N[C@@H](C)C(=O)N[C@H](C(=O)N[C@@H](CCCCN)C(=O)N[C@@H](CCCCN)C(=O)N[C@@H](Cc1ccc(O)cc1)C(=O)N[C@@H](CC(C)C)C(=O)N[C@@H](C)C(=O)N[C@@H](C)C(=O)N[C@H](C(=O)N[C@@H](CC(C)C)C(=O)N[C@@H](CO[C@@H]1O[C@H](CO[C@H]2O[C@H](CO)[C@H](O)[C@H](O)[C@H]2O)[C@@H](O)[C@H](O)[C@H]1O)C(N)=O)C(C)C)C(C)C)[C@@H](C)O [Compound 2LS80Mel]	comparable to uninjured shams at all time points post-injury	no TBI-induced cognitive deficits among any group	–	–	–	–
[2H]C([2H])([2H])C([2H])(C([2H])([2H])[2H])[C@]([2H])(NC(=O)[C@H](C)NC(=O)[C@H](C)NC(=O)[C@H](CC(C)C)NC(=O)[C@H](Cc1ccc(O)cc1)NC(=O)[C@H](CCCCN)NC(=O)[C@H](CCCCN)NC(=O)[C@@]([2H])(NC(=O)[C@H](C)NC(=O)[C@H](CC(C)C)NC(=O)[C@H](CCC(N)=O)NC(=O)[C@H](CCCCN)NC(=O)[C@H](CCCNC(=N)N)NC(=O)[C@H](Cc1ccc(O)cc1)NC(=O)[C@H](CCCNC(=N)N)NC(=O)[C@H](CO)NC(=O)[C@H](Cc1ccc(O)cc1)NC(=O)[C@H](CO)NC(=O)[C@H](CC(=O)O)NC(=O)[C@@H](NC(=O)[C@H](Cc1ccccc1)NC(=O)[C@@H](NC(=O)CNC(=O)[C@H](CC(=O)O)NC(=O)[C@H](CO)NC(=O)[C@@H](N)Cc1c[nH]cn1)[C@@H](C)CC)[C@@H](C)O)C([2H])(C([2H])([2H])[2H])C([2H])([2H])[2H])C(=O)N[C@@H](CC(C)C)C(=O)N[C@@H](CO[C@@H]1O[C@H](CO)[C@@H](O[C@@H]2O[C@H](CO)[C@H](O)[C@H](O)[C@H]2O)[C@H](O)[C@H]1O)C(N)=O [Compound 2LS98Lac]	–	–	193	100	268.06	428.89
